This is an account of results in US10138255B2, “Piperazine derivatives as HIV protease inhibitors” (Merck Sharp & Dohme Corp., priority 2014, dated 2018).

In the test the test system is HIV-1 (H9IIIB strain). In words: Cell-Based HIV Infection Assay Using a Reporter (MT4-GFP cells). The following applies: Human immunodeficiency virus 1, inflection point (IP) of viral growth inhibition; MT4-GFP cells infected with HIV-1 H9IIIB; 50% normal human serum; mean of at least two independent experiments; read-out: Cell Based IP (50% NHS). An outline of the steps:
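Inflection point from a 4-parameter curve of % viral growth inhibition, normalised to DMSO and triple-drug controls, using the 48 h/24 h ratio of GFP-positive cells (R0). MT4-GFP cells pre-infected 24 h with HIV-1 H9IIIB at low MOI; compounds tested in 50% normal human serum, 0.4% DMSO; mean of ≥2 experiments.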
On to `COC(=O)N[C@H](C(=O)N[C@H]1CCCC[C@@H]1CC[C@H]1CN[C@@H]2CCCS(=O)(=O)N1C2)[C@@H](c1ccc(Cl)cc1)C1CCOCC1` [Example 25, Methyl [(1S,2R)-2-(4-chlorophenyl)-1-{[(1S,2R)-2-{2-[(6R,9S)-2,2-dioxido-2-thia-1,7-diazabicyclo[4.3.1]dec-9-yl]ethyl}cyclohexyl]carbamoyl}-2-(tetrahydro-2H-pyran-4-yl)ethyl]carbamate], for which the EC50 was determined as 41 nM. As to `CO[C@H]1CC[C@@](c2ccc(Cl)cc2)([C@H](N)C(=O)Nc2cccc(F)c2CC[C@H]2CN[C@@H]3CCCS(=O)(=O)N2C3)CC1` [Example 126, (2S)-2-amino-2-[cis-1-(4-chlorophenyl)-4-methoxycyclohexyl]-N-(2-{2-[(6R,9S)-2,2-dioxido-2-thia-1,7-diazabicyclo[4.3.1]dec-9-yl]ethyl}-3-fluorophenyl)ethanamide], the EC50 was found to be 610 nM. With `C[C@@H]1CC([C@H](c2ccc(Cl)c(F)c2)[C@H](N)C(=O)Nc2cncc(F)c2CC[C@H]2CN[C@@H]3CCCS(=O)(=O)N2C3)C[C@H](C)O1` (stereo partly drawn) [Example 245, (2S,3R)-2-amino-3-(4-chloro-3-fluorophenyl)-3-((2R,6S)-2,6-dimethyltetrahydro-2H-pyran-4-yl)-N-(4-(2-((6R,9S)-2,2-dioxido-2-thia-1,7-diazabicyclo[4.3.1]decan-9-yl)ethyl)-5-fluoropyridin-3-yl)propanamide], the EC50 amounted to 5.8 nM. Consider `COC(=O)N[C@H](C(=O)Nc1cccc(F)c1CCC1CNC2CCCS(=O)(=O)N1C2)[C@@H](c1ccc(F)cc1)c1cccc(C2CC2)c1` (stereo partly drawn) [Example 52, methyl [(1S,2S)-2-(3-cyclopropylphenyl)-1-({2-[2-(2,2-dioxido-2-thia-1,7-diazabicyclo[4.3.1]dec-9-yl)ethyl]-3-fluorophenyl}carbamoyl)-2-(4-fluorophenyl)ethyl]carbamate], for which the EC50 amounted to 72 nM. On to `C[C@@H]1CC([C@H](c2ccc(F)cc2)[C@H](N)C(=O)N[C@H]2CCC[C@@H]2CC[C@H]2CN[C@@H]3CCCS(=O)(=O)N2C3)C[C@H](C)O1` (stereo partly drawn) [Example 107, (βR)-β-[(2R,4s,6S)-2,6-dimethyltetrahydro-2H-pyran-4-yl]-N-[(1S,2R)-2-{2-[(6R,9S)-2,2-dioxido-2-thia-1,7-diazabicyclo[4.3.1]dec-9-yl]ethyl}cyclopentyl]-4-fluoro-L-phenylalaninamide], for which the EC50 was 84 nM.

In the case of `CO[C@H]1CC[C@H]([C@H](c2ccc(Cl)cc2)[C@H](N)C(=O)Nc2cccc(F)c2CC[C@H]2CN[C@@H]3CCCS(=O)(=O)N2C3)CC1` [Example 7, (βR)-4-Chloro-N-(2-{2-[(6R,9S)-2,2-dioxido-2-thia-1,7-diazabicyclo[4.3.1]dec-9-yl]ethyl}-3-fluorophenyl)-β-[(1r,4R)-4-methoxycyclohexyl]-L-phenylalaninamide], the EC50 stood at 3.1 nM.

For `N[C@H](C(=O)N[C@H]1CCCC[C@@H]1CC[C@H]1CN[C@@H]2CCCS(=O)(=O)N1C2)[C@@H](c1ccc(F)cc1)C1CCOCC1` [Example 156, (βR)-N-[(1S,2R)-2-{2-[(6R,9S)-2,2-dioxido-2-thia-1,7-diazabicyclo[4.3.1]dec-9-yl]ethyl}cyclohexyl]-4-fluoro-β-(tetrahydro-2H-pyran-4-yl)-L-phenylalaninamide], the EC50 came to 200 nM.

With `Cn1nc(C(F)(F)F)cc1[C@H](c1ccc(Cl)cc1)[C@H](N)C(=O)Nc1cncc(F)c1CC[C@H]1CN[C@@H]2CCCS(=O)(=O)N1C2` [Example 262, (βR)-4-chloro-N-(4-{2-[(6R,9S)-2,2-dioxido-2-thia-1,7-diazabicyclo[4.3.1]dec-9-yl]ethyl}-5-fluoropyridin-3-yl)-β-[1-methyl-3-(trifluoromethyl)-1H-pyrazol-5-yl]-L-phenylalaninamide], the EC50 came to 22 nM.
